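Five concentrations, 48 hours, 96-well plates. GI50 is the concentration that inhibits growth by half. The concentration for full growth arrest is given as TGI.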
Assays:
Assay in all cases: growth of human tumour cells (NCI), 48 h
[1] = system: OVCAR-3 ovarian
[2] = system: SN12C renal
[3] = system: MALME-3M melanoma
[4] = system: MCF7 breast
[5] = system: IGROV1 ovarian
[6] = system: MOLT-4 leukemia
[7] = system: EKVX NSCLC
[8] = system: A549 NSCLC
[9] = system: OVCAR-5 ovarian
[10] = system: HOP-62 NSCLC
[11] = system: M14 melanoma
[12] = system: CAKI-1 renal
[13] = system: UACC-62 melanoma
[14] = system: DU-145 prostate
[15] = system: HS 578T breast
[16] = system: SK-MEL-28 melanoma
[17] = system: KM12 colon
[18] = system: NCI-H226 lung
[19] = system: U251 CNS
[20] = system: UACC-257 melanoma
[21] = system: HL-60(TB) leukemia
[22] = system: SF-295 CNS
[23] = system: T-47D breast
[24] = system: SK-MEL-5 melanoma
[25] = system: K-562 leukemia
[26] = system: SF-268 CNS
[27] = system: SK-OV-3 ovarian
[28] = system: OVCAR-8 ovarian
[29] = system: RPMI-8226 leukemia
[30] = system: SR leukemia
[31] = system: PC-3 prostate
[32] = system: COLO 205 colon
[33] = system: SNB-19 CNS
[34] = system: TK-10 renal
[35] = system: HCT-116 colon
[36] = system: A498 renal
[37] = system: OVCAR-4 ovarian
[38] = system: MDA-MB-231 breast
[39] = system: CCRF-CEM leukemia
[40] = system: 786-0 renal
[41] = system: MDA-MB-435
[42] = system: UO-31 renal
[43] = system: LOX IMVI melanoma
[44] = system: RXF 393 renal
[45] = system: NCI-H460 lung
[46] = system: NCI-H522 lung
[47] = system: NCI-H23 lung
[48] = system: NCI/ADR-RES ovarian
[49] = system: SW-620 colon
[50] = system: SF-539 CNS

For `Cc1cccc(NC2=C(Cl)C(=O)N(Cc3ccc(Cl)cc3)C2=O)c1`, the GI50 [1] was 7.19 µM, the TGI [1] was 21 µM and the GI50 [2] was 4.37 µM. The TGI [2] was 43.6 µM, the GI50 [3] was 3.25 µM and the TGI [3] was 22.7 µM. The GI50 [4] was 3.17 µM, the TGI [4] was greater than 100 µM and the GI50 [5] was 2250 nM. For the same compound, the TGI [5] was 12.1 µM, the GI50 [6] was 3.14 µM and the TGI [6] was 12.4 µM. For the same compound, the GI50 [7] was 7.15 µM, the TGI [7] was 27.1 µM and the GI50 [8] was 12.5 µM. The TGI [8] was 34.2 µM, the GI50 [9] was 28 µM and the TGI [9] was 74.5 µM. It also gave a GI50 [10] of 3.88 µM, a TGI [10] of 15 µM and a GI50 [11] of 4.33 µM. For the same compound, the TGI [11] was 19.9 µM, the GI50 [12] was 4.61 µM and the TGI [12] was 24.6 µM. The GI50 [13] was 4.89 µM, the TGI [13] was 29.9 µM and the GI50 [14] was 9.97 µM. The TGI [14] was 60.2 µM, the GI50 [15] was 7.35 µM and the TGI [15] was 37.3 µM. It also gave a GI50 [16] of 3.88 µM, a TGI [16] of 22.8 µM and a GI50 [17] of 3.27 µM. The TGI [17] was 16.9 µM, the GI50 [18] was 1200 nM and the TGI [18] was 8.04 µM. The GI50 [19] was 4.08 µM, the TGI [19] was greater than 100 µM and the GI50 [20] was 16.6 µM. It also gave a TGI [20] of 47.9 µM, a GI50 [21] of 4.83 µM and a TGI [21] of 20.3 µM. It also gave a GI50 [22] of 5.8 µM, a TGI [22] of 27.4 µM and a GI50 [23] of 3.47 µM. It also gave a TGI [23] of 28.9 µM, a GI50 [24] of 2230 nM and a TGI [24] of 7.76 µM. For the same compound, the GI50 [25] was 3.63 µM, the TGI [25] was 13.9 µM and the GI50 [26] was 4.93 µM. It also gave a TGI [26] greater than 100 µM, a GI50 [27] of 3.51 µM and a TGI [27] of 18.7 µM. The GI50 [28] was 6.46 µM, the TGI [28] was 23.8 µM and the GI50 [29] was 1070 nM. For the same compound, the TGI [29] was 3.2 µM, the GI50 [30] was 1790 nM and the TGI [30] was 4.88 µM. It also gave a GI50 [31] of 2100 nM, a TGI [31] of 8.67 µM and a GI50 [32] of 3.08 µM. It also gave a TGI [32] of 15 µM, a GI50 [33] of 2940 nM and a TGI [33] of 25.8 µM. The GI50 [34] was 3.8 µM, the TGI [34] was 21 µM and the GI50 [35] was 2940 nM. For the same compound, the TGI [35] was 10.8 µM, the GI50 [36] was 2000 nM and the TGI [36] was 5.14 µM. For the same compound, the GI50 [37] was 3.84 µM, the TGI [37] was 40.4 µM and the GI50 [38] was 2270 nM. It also gave a TGI [38] of 8.77 µM, a GI50 [39] of 214 nM and a TGI [39] of 1780 nM. For the same compound, the GI50 [40] was 2160 nM, the TGI [40] was 14.8 µM and the GI50 [41] was 4.74 µM. It also gave a TGI [41] of 19 µM, a GI50 [42] of 11.9 µM and a TGI [42] greater than 100 µM. For the same compound, the GI50 [43] was 2880 nM, the TGI [43] was 16 µM and the GI50 [44] was 7.72 µM. It also gave a TGI [44] of 27.6 µM, a GI50 [45] of 2810 nM and a TGI [45] of 33.9 µM. For the same compound, the GI50 [46] was 3.09 µM, the TGI [46] was 13.1 µM and the GI50 [47] was 1640 nM. For the same compound, the TGI [47] was 10.7 µM, the GI50 [48] was 1560 nM and the TGI [48] was 8.03 µM. The GI50 [49] was 2230 nM, the TGI [49] was 12.9 µM and the GI50 [50] was 2110 nM. For the same compound, the TGI [50] was 13.6 µM.

Source: PubChem BioAssay (NCI)
